Earlier results in patent US20200237789A1, “COMBINATION THERAPY FOR PREVENTING ADDICTION” (Amygdala Neurosciences, Inc., priority 2017, published 2020).

Columns and labels:
hMAO-A = target: T1, hMAO-A (Homo sapiens, UniProt P21397); settings: read-out: IC50 hMAO-A
T1 sequence (P21397 1-527): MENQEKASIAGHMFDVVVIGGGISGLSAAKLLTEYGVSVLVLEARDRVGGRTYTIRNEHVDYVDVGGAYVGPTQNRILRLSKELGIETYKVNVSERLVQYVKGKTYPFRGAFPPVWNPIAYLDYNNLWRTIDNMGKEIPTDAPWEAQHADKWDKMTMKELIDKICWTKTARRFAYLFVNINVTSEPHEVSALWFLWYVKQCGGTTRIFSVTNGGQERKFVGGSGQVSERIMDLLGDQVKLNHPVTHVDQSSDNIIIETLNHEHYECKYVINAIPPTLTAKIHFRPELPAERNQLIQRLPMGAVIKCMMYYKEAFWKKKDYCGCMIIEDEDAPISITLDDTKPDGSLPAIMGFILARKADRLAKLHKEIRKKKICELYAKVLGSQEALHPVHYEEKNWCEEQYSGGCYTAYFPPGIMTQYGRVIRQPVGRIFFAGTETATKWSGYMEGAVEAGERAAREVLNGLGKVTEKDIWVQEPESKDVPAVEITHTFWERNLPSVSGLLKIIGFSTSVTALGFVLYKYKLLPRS

hMAO-B = target: T2, hMAO-B (Homo sapiens, UniProt P27338); settings: read-out: IC50 hMAO-B
T2 sequence (P27338 1-520): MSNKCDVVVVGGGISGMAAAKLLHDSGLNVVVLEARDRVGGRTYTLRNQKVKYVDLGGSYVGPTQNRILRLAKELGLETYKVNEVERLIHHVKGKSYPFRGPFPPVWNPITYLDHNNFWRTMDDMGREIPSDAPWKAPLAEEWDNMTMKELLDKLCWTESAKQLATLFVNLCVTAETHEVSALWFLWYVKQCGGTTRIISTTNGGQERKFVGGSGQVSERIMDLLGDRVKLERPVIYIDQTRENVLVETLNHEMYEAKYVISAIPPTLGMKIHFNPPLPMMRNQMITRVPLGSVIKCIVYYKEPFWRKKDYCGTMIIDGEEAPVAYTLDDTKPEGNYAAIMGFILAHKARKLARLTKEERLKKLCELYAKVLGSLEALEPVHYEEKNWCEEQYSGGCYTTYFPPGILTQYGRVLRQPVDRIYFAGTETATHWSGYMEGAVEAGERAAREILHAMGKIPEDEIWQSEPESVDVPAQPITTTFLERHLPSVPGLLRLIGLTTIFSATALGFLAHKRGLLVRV

human ALDH-2 enzyme = target: T3, human ALDH-2 enzyme (Homo sapiens, UniProt P05091); settings: read-out: IC50 ALDH-2
T3 sequence (P05091 18-517): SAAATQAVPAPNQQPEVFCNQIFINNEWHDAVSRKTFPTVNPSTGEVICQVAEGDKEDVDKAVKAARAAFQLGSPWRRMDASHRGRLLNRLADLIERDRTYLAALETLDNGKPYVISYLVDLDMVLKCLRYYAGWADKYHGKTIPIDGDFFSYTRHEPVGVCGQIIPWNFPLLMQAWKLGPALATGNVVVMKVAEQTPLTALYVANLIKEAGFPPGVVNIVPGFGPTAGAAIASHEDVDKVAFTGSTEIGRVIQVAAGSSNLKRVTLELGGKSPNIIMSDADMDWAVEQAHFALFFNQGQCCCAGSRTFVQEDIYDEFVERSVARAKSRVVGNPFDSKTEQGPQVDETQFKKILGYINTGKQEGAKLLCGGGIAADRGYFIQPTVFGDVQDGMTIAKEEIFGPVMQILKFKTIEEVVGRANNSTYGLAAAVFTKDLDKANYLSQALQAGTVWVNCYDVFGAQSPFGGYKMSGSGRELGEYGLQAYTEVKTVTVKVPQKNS

| SMILES | IC50 (hMAO-A) | IC50 (hMAO-B) | IC50 (human ALDH-2 enzyme) |
| --- | --- | --- | --- |
| COCCOc1cc(Cl)c(C(=O)NCc2ccc(-c3cc[nH]c(=O)c3)cc2)c(Cl)c1 [(3), 2,6-dichloro-4-(2-methoxyethoxy)-N-(4-(2-oxo-1,2-dihydropyridin-4-yl)benzyl)benzamide] | > 130 µM | > 130 µM | – |
| O=C(NCc1ccc(-c2cc[nH]c(=O)c2)cc1)c1cccc(F)c1Cl [(4), 2-chloro-3-fluoro-N-(4-(2-oxo-1,2-dihydropyridin-4-yl)benzyl)benzamide] | > 130 µM | > 130 µM | – |
| Cc1cccc(Cl)c1C(=O)NCc1ccc(-c2cc[nH]c(=O)c2)cc1 [(5), 2-chloro-6-methyl-N-(4-(2-oxo-1,2-dihydropyridin-4-yl)benzyl)benzamide] | > 130 µM | > 130 µM | – |
| Cc1cccc(C)c1C(=O)NCc1ccc(-c2cc[nH]c(=O)c2)cc1 [(6), 2,6-dimethyl-N-(4-(2-oxo-1,2-dihydropyridin-4-yl)benzyl)benzamide] | > 130 µM | > 130 µM | – |
| Cc1cc(-c2ccc(CNC(=O)c3c(Cl)cccc3Cl)cc2)cc(=O)[nH]1 [(7), 2,6-dichloro-N-[4-(6-methyl-2-oxo-1,2-dihydro-pyridin-4-yl)-benzyl]-benzamide] | > 130 µM | > 130 µM | – |
| O=C(NCc1ccc(-c2cc[nH]c(=O)c2)cc1)c1c(F)ccc(F)c1Cl [(8), 2-chloro-3,6-difluoro-N-(4-(2-oxo-1,2-dihydropyridin-4-yl)benzyl)benzamide] | > 130 µM | > 130 µM | – |
| Cc1cc(CNC(=O)c2c(Cl)cccc2Cl)ccc1-c1cc[nH]c(=O)c1 [(9), 2,6-dichloro-N-(3-methyl-4-(2-oxo-1,2-dihydropyridin-4-yl)benzyl)benzamide] | > 130 µM | > 130 µM | – |
| Cn1ccc(-c2ccc(CNC(=O)c3c(Cl)cccc3Cl)cc2)cc1=O [(10), 2,6-dichloro-N-(4-(1-methyl-2-oxo-1,2-dihydropyridin-4-yl)benzyl)benzamide] | > 130 µM | > 130 µM | – |
| O=C(NCc1ccc(-c2cc[nH]c(=O)c2)cc1)c1c(F)cccc1F [(11), 2,6-difluoro-N-(4-(2-oxo-1,2-dihydropyridin-4-yl)benzyl)benzamide] | > 130 µM | > 130 µM | – |
| O=C(NCc1ccc(-c2cc[nH]c(=O)c2)cc1)c1c(F)cccc1Cl [(12), 2-chloro-6-fluoro-N-(4-(2-oxo-1,2-dihydropyridin-4-yl)benzyl)benzamide] | > 130 µM | > 130 µM | – |
| O=C(NCc1ccc(-c2cc[nH]c(=O)c2)cc1F)c1c(Cl)cccc1Cl [(13), 2,6-dichloro-N-(2-fluoro-4-(2-oxo-1,2-dihydropyridin-4-yl)benzyl)benzamide] | > 130 µM | > 130 µM | – |
| O=C(NCc1ccc(-c2cc(=O)[nH]cc2F)cc1)c1c(Cl)cccc1Cl [(14), 2,6-dichloro-N-(4-(5-fluoro-2-oxo-1,2-dihydropyridin-4-yl)benzyl)benzamide] | > 130 µM | > 130 µM | – |
| O=C(NCc1ccc(-c2cc[nH]c(=O)c2)cc1)c1c(Cl)cccc1Cl [compound (1), 2,6-dichloro-N-[4-(2-oxo-1,2-dihydro-pyridin-4-yl)-benzyl]-benzamide] | > 130 µM | > 130 µM | – |
| O=C(NCc1ccc(-c2ccn(COP(=O)(O)O)c(=O)c2)cc1)c1c(Cl)cccc1Cl [compound (2), phosphoric acid mono-(4-{4-[(2,6-dichloro-benzoylamino)-methyl]-phenyl}-2-oxo-2H-pyridin-1-ylmethyl) ester] | > 130 µM | > 130 µM | > 10 µM |
